Results as given in patent EP1370663B1, “MICROBIOLOGICAL METHOD FOR PRODUCING L-CARNITINE” (priority 2001, dated 2002).

Key:
[1] = test system: Hydrolasen im Zellextrakt des Stammes HK1349 (DSM 3944); experiment: Hydrolase activity of HK1349 supernatant after cell disruption and treatment with detergents (4-nitrophenyl acetate assay); type: biochemical, Agrobacterium/Rhizobium HK1349 (DSM 3944); details: supernatant after cell disruption and treatment with 5% (v/v) detergent, 30 min, 25°C; 100% = 0,30 U/mg Protein
Experimental: Die Bestimmung der Hydrolase-Aktivität erfolgte photometrisch mittels Essigsäue-4-nitrophenylester-Assay. Hierzu wurde die Proteinlösung (900 µL) mit einer Lösung von Essigsäure-4-nitrophenylester (10 mM in Dimethylsulfoxid; 100 µL) bei 25°C versetzt. Die Absorption des während der Hydrolyse gebildeten 4-Nitrophenols (e = 15 × 10^3 × M^-1 cm^-1) wurde bei 410 nm gemessen. 1 Unit (U) entspricht der Menge 4-Nitrophenol (in µmol), die pro Minute freigesetzt wird. Die Bestimmung des Proteingehaltes der eingesetzten Proteinlösung erfolgte mit dem BCA (Bicin choninic acid) Protein Assay kit (Pierce) nach Anleitung des Herstellers. Die spezifische Hydrolase-Aktivität wird angegeben in U/mg Protein und entspricht der Menge 4-Nitrophenol (in µmol), die pro Minute und mg Protein freigesetzt wird.
Die gemäss Beispiel 4.1. erhaltene Zellsuspension (HK1349 (DSM 3944), OD650 nm 37, 50 mM Natriumphosphat-Puffer, pH 7,5) wurde durch 10 minütige Behandlung mit Ultraschall unter Eisbadkühlung aufgeschlossen, mit verschiedenen Detergentien (5% (v/v) Detergenz; 30 min; 25°C) inkubiert und die Zelltrümmer wurden abzentrifugiert (4 000 upm; 10 min; 4°C). Die spezifische Hydrolase-Aktivität der Überstände wurde mittels Essigsäure-4-nitrophenylester-Assay bestimmt. Die höchste spezifische Hydrolase-Aktivität (0,30 U/mg Protein) wurde als 100%-Wert betrachtet. Die Ergebnisse sind in Tabelle 4 zusammengestellt. Die höchste spezifische Hydrolase-Aktivität wurde unter Verwendung von Triton X-114 beobachtet.

[2] = test system: Stamm HK4 (DSM 2938); experiment: Growth of strain HK4 on butyrobetaine esters or butyrobetaine as sole C source; type: cell-based, Agrobacterium/Rhizobium HK4 (DSM 2938); details: 30°C, 140 upm, 48 to 96 h
Experimental: Der Stamm HK4 (DSM 2938) wurde auf Minimalmedium Agarplatten unter Zusatz von 0,4% (w/v) Betain als einziger C-Quelle nach Einzelkolonie-Ausstrich bei 30°C für 48 bis 72 h inkubiert. Zur Anzucht wurden Einzelkolonien des Stammes von der Agarplatte in das Minimalmedium enthaltend Butyrobetain-methylester (BBMe) und Butyrobetain-ethylester (BBEt) als jeweils einziger C-Quelle überimpft und bei 30°C und 140 upm für 48 bis 96 h inkubiert. Es wurde ein Kontrollversuch durchgeführt, bei dem die Anzucht des Stammes HK4 (DSM 2938) unter den gleichen Bedingungen, jedoch unter Zusatz von Butyrobetain anstelle eines Butyrobetain-esters als einziger C-Quelle, erfolgte.

[3] = Control: storage of butyrobetaine esters in the medium without cells (hydrolytic stability); type: physicochemical; details: same medium and conditions as Example 2 (30°C, 74 h) but without cells
Experimental: Die Stämme HK13 (DSM 2903) und HK1349 (DSM 3944) wurden jeweils in "Nutrient Yeast broth" Vorkulturmedium (10 mL), welchem L-Carnitin (0,05% (w/v)) als Induktor des L-Carnitinstoffwechsels zugesetzt wurde, überimpft und 2 Tage bei 30°C und 140 upm inkubiert. Die Vorkulturen (0,01 mL) wurde in das Minimalmedium (10 mL), welches zusätzlich 0,02% (w/v) Betain, 0,05% (v/v) Glycerin, 0,50% (w/v) L-Glutamat und entweder 0,75% (w/v) Butyrobetain-methylester (BBMe) oder 0,75% (w/v) Butyrobetain-ethylester (BBEt) enthielt, überimpft und bei 30°C und 140 upm inkubiert. Nach 40 h betrug die OD650 von beiden Kulturen ca. 9,0 und die Kulturen befanden sich in der stationären Phase. Nach weiteren 34 h wurden Proben entnommen. Die Zellen wurden zentrifugiert (11 000 upm, 5 min) und der Überstand wurde mittels HPLC auf den Gehalt an Butyrobetain, L-Carnitin und nicht umgesetzten Butyrobetain-ester untersucht. Die Ergebnisse sind in Tabelle 2 zusammengefasst. Als Kontrollversuch wurden Butyrobetain-methylester (BBMe) und Butyrobetain-ethylester (BBEt) jeweils im gleichen Medium und unter den gleichen Bedingungen, jedoch ohne Zusatz von Zellen, gelagert. […]

[4] = test system: Hydrolasen im Zellextrakt des Stammes HK1349 (DSM 3944); experiment: Substrate specificity of the hydrolases of HK1349 (pH-stat titration); type: biochemical, Agrobacterium/Rhizobium HK1349 (DSM 3944); details: 5% (v/v) ester emulsion, 37°C; for Spezifische Hydrolase-Aktivität [U/mg Protein]: lyophilised Triton X-114 supernatant of HK1349; for Relative spezifische Hydrolase-Aktivität [%]: 100% = 0,039 U/mg Protein
Experimental: Die gemäss Beispiel 4.1. erhaltene Zellsuspension (HK1349 (DSM 3944), OD650 nm 37, 50 mM Natriumphosphat-Puffer, pH 7,5) wurde durch 10 minütige Behandlung mit Ultraschall unter Eisbadkühlung aufgeschlossen, mit Triton X-114 (5% (v/v); 30 min; 25°C) inkubiert und dann zentrifugiert (4 000 upm; 10 min; 4°C). Der Überstand wurde lyophilisiert. Der lyophilisierte Überstand (100 mg) wurde in Natriumphosphatpuffer (50 mM; pH 7,5; 1,0 mL) gelöst und zu Emulsionen von Essigsäure-ethylester, Buttersäure-ethylester und Buttersäure-methylester (5% (v/v) Ester emulgiert mittels eines Ultraturrax in destilliertem Wasser enthaltend 2% (w/v) Gummi arabicum; 20 mL) bei 37°C gegeben. Die bei der Hydrolyse des Esters freigesetzte Säure wird mit NaOH (0,01 M) unter Verwendung eines pH-Stats titriert. 1 U (Unit) entspricht der Menge an Säure (in µmol), die pro Minute freigesetzt wird. Die höchste spezifische Hydrolase-Aktivität (0,039 U/mg Protein) wurde als 100%-Wert betrachtet. Die Ergebnisse sind in Tabelle 5 zusammengestellt.

[5] = 1,0 % (w/v) as sole C source in minimal medium

Row | Compound | Relative spezifische Hydrolase-Aktivität [%] [1] | Wachstum [OD650] [2, 5] | Spezifische Hydrolase-Aktivität [U/mg Protein] [4] | Relative spezifische Hydrolase-Aktivität [%] [4] | further results
1 | Triton X-100 | 64% |  |  |  | 
2 | COC(=O)CCC[N+](C)(C)C [BBMe, Butyrobetain-methylester] |  | 0,76 OD650 |  |  | Hydrolyse der Butyrobetain-ester zu Butyrobetain [3]: keine Hydrolyse
3 | CCCC(=O)OCC [Buttersäure-Ethylester] |  |  | 0,028 U/mg Protein | 72% | 
4 | CCOC(C)=O [Essigsäure-Ethylester] |  |  | 0,039 U/mg Protein | 100% | 
5 | CCCCCCCCCCCCOS(=O)(=O)O [SDS] | 26% |  |  |  | 
6 | CCCC(=O)OC [Buttersäure-Methylester] |  |  | 0,038 U/mg Protein | 97% | 
7 | CCOC(=O)CCC[N+](C)(C)C [BBEt, Butyrobetain-ethylester] |  | 0,76 OD650 |  |  | Wachstum [OD650] ([2]; 0,2 % (w/v) as sole C source in minimal medium): 0,23 OD650; Hydrolyse der Butyrobetain-ester zu Butyrobetain [3]: keine Hydrolyse
8 | C[N+](C)(C)CCCC(=O)[O-] [Butyrobetain] |  | 7,0 OD650 |  |  | 
9 | CCCCCCCC/C=C\CCCCCCCC(=O)OCCOCC(OCCO)C1OCC(OCCO)C1OCCO (stereo not drawn) [Tween 80] | 80% |  |  |  | 
